Read-outs that look alike come from different tables or passages of the source.

One series has as its system HIV (Strain RF). Nature of the series: Anti-HIV activity in C8166 cells infected with HIV strain RF: syncytia and p24 (Example VI). The class given is cell-based. The procedure: Protocol: C8166 cells were infected with HIV (Strain RF) for 1 hour at room temperature to give a multiplicity of infection of approximately 0.01 infectious units per cell.
In a further series the test system is HIV-I (RF). Nature of the series: Effect of treating HIV-I (RF)-infected cells (C8166) 24 hours post-infection (Example V, Table VII). The settings on record: for P24 DAY 6 p.i. / SYNCYTIA/WELL DAY 2 / SYNCYTIA/WELL DAY 3: 10 μM; for activity at 10 µM: Human immunodeficiency virus 1, C8166, 144 h, read-out: P24 % CONTROL, 10 μM.
The test system of another series is HIV (Strain GB8). Nature of the series: JM cells infected with HIV strain GB8: syncytia and p24 (Example VII). As to conditions: for p24 3 days p.i.: supernatant screened at 1/100 dilution. The series is classed as cell-based. The procedure: JM cells were infected with HIV (Strain GB8) to give approximately 200 syncytia/1×10^5 cells after 3 days; virus infection was for 1 hour at room temperature.

In the next series the test system is HIV-I (GB8). Nature of the series: Pretreatment of JM cells and block of HIV-I (GB8) infection (Example IV). The settings on record: pretreated overnight at 20 μg/mL; for MEAN SYNCYTIA: 2 days; for P24 % / SYNCYTIA %: % of control, 2880 min.
Another series concerns HIV strain RF. Nature of the series: Ability to prevent virus-induced cell death using MT4 cells and strain RF (Example III). The class given is cell-based. As to conditions: MT4 cells, 7 days, MTT, 10080 min. As to the method:
(§1) Various oligomers were dissolved in RPMI and were then assayed for anti-HIV activity by making doubling dilutions of the solutions across a 96 well microtitre plate. To each well were then added 5×10^4 cells and 100 TCID50 of virus and the plates incubated at 37° C. for 7 days. MTT was added to each well and the plates incubated for a further 2 hours. The blue formazan crystals were dissolved using acidic isopropanol, and the absorbance measured at 540 nm.

The next series concerns MT4 cells. Nature of the series: Toxicity to MT4 cells (TD50, Table IV, MTT). The series is classed as cell-based. As to conditions: MT4 cells, 7 days, MTT. As to the method:
as §1

In the next series the test system is GB8 virus in JM cells. Nature of the series: Virus infection of JM cells with GB8 in the presence of test compounds: syncytia and P24 (Example II). As to conditions: for SYNCYTIA % / P24 %: % of control; for SYNCYTIA %: 2880 min; for P24 %: 5760 min.

Description for GB8 virus in JM cells: Virus infection of JM cells was carried out in the presence of different concentrations of test compounds. JM cells (1×10^5) and 50-100 syncytial forming units of virus (GB8) were added to duplicate wells of a tissue culture plate containing 1 mL volumes of growth medium with or without drug. The plate was incubated for 2 days at 37° C. and then scored for the presence of syncytia. At the same time the cells were washed and the growth medium replaced. After a further two days incubation, the cell free supernatant fluids were harvested and assayed for levels of P24 viral core antigen using the Coulter™ HIV Antigen assay.
Description for HIV-I (GB8): JM cells were pretreated overnight at 37° C. with different compounds at 20 μg/mL or left untreated. The cells were washed 3 times in RPMI medium and then infected with HIV-I (GB8) for 2 hours at room temperature. The cells were again washed 3 times in RPMI medium and resuspended in fresh medium prior to being distributed into duplicate wells and incubated at 37° C. After 2 days syncytia were scored and the cell free supernatant fluid harvested and assayed for P24 viral core antigen using the Coulter™ HIV antigen assay.
Description for HIV-I (RF): Cells were infected with strain RF or GB8 for 24 hours at 37° C. at a multiplicity of infection of 0.001. Cells were washed three times to remove residual virus and then replated into fresh growth medium. Cells were then treated for 24 and 48 hours post-infection (p.i.) with the indicated concentrations of test compounds. Syncytia and P24 antigen levels were determined on the indicated days p.i. by methods described before.

Regarding `Cc1cn([C@H]2C[C@H](N=[N+]=[N-])[C@@H](CO)O2)c(=O)[nH]c1=O` [AZT, reference compound], the “p24 Day 2” value in the series on HIV (Strain RF) (0.1 μg/ml) is recorded as “neg”. Also, in the series on HIV (Strain RF) (1 μg/ml), the “SYNCYTIA Day 2” value was 0 and the “p24 Day 2” value was “neg”. In the series on HIV (Strain RF) (Human immunodeficiency virus 1, C8166, 48 h, 0.1 μg/ml, read-out: p24 % of VIRUS CONTROL), the activity at 0.1 µg/mL was 0%. Moreover, in the series on HIV (Strain RF) (Human immunodeficiency virus 1, C8166, 48 h, 1 μg/ml, read-out: p24 % of VIRUS CONTROL), the activity at 1 µg/mL stood at 0%. Further, in the series with HIV-I (RF) (addition 0 hours p.i.), the “P24 DAY 6 p.i.” value worked out at 10000 pg/mL, the “SYNCYTIA/WELL DAY 2” value worked out at 0, the “SYNCYTIA/WELL DAY 3” value was 0 and the activity at 10 µM stood at 1.1%. Moreover, in the series on HIV-I (RF) (addition 24 hours p.i.), the “P24 DAY 6 p.i.” value was 44000 pg/mL and the activity at 10 µM amounted to 4.6%.
As to `Nc1ccn([C@H]2CC[C@@H](CO)O2)c(=O)n1` [ddC, reference compound], in the series on HIV (Strain GB8) (0.01 μg/ml), the “MEAN SYNCYTIA 3 days p.i.” value was 80 and the “p24 3 days p.i.” value was 5400 pg/mL. In the series on HIV (Strain GB8) (0.1 μg/ml), the “MEAN SYNCYTIA 3 days p.i.” value was 2 and the “p24 3 days p.i.” value is “neg”. In the series on HIV (Strain GB8) (1 μg/ml), the “MEAN SYNCYTIA 3 days p.i.” value stood at 0 and the “p24 3 days p.i.” value is “neg”. Also, in the series with HIV (Strain GB8) (10 μg/ml), the “MEAN SYNCYTIA 3 days p.i.” value was determined as 0 and the “p24 3 days p.i.” value is reported as “neg”. For the same compound, in the series with HIV-I (RF) (addition 0 hours p.i.), the “P24 DAY 6 p.i.” value stood at 13000 pg/mL, the “SYNCYTIA/WELL DAY 2” value came to 0, the “SYNCYTIA/WELL DAY 3” value is reported as 0 and the activity at 10 µM was found to be 1.4%. For the same compound, in the series on HIV-I (RF) (addition 24 hours p.i.), the “P24 DAY 6 p.i.” value stood at 420000 pg/mL and the activity at 10 µM turned out to be 44.2%.
Consider Dextran Sulfate [reference compound], for which, in the series on HIV-I (GB8), the P24 was found to be 28710 pg/mL, the “MEAN SYNCYTIA” value amounted to 184, the P24 % is 101% and the SYNCYTIA % was found to be 155%.
Consider “poly[imino(2,5-disulfo-1,4-phenylene)iminocarbonyl], alpha-{[(4-methylphenyl)amino]carbonyl}-omega-[(4-methylphenyl)amino]- [Example 3A]”, for which, in the series with HIV strain RF, the ED50 is more than 10 µg/mL. In the series with MT4 cells, this compound gave a TD50 of more than 100 µg/mL. Moreover, the P24 is 26880 pg/mL in the series on HIV-I (GB8); 4.3 × 10^5 units/mL in the series on GB8 virus in JM cells (Table II, 1.25 μg/mL); 2.5 × 10^5 units/mL with GB8 virus in JM cells (Table II, 2.5 μg/mL); 3.6 × 10^5 units/mL in the series with GB8 virus in JM cells (Table II, 5 μg/mL); 4.1 × 10^4 units/mL in the series with GB8 virus in JM cells (Table II, 10 μg/mL). Also, the “MEAN SYNCYTIA” value in the series with HIV-I (GB8) was determined as 153. Moreover, the P24 % in the series on HIV-I (GB8) was 95%; in the series with GB8 virus in JM cells (Table II, 1.25 μg/mL), 100%; with GB8 virus in JM cells (Table II, 2.5 μg/mL), 69%; in the series with GB8 virus in JM cells (Table II, 5 μg/mL), 100%; with GB8 virus in JM cells (Table II, 10 μg/mL), 11%. The SYNCYTIA % is 129% with HIV-I (GB8); 120% in the series on GB8 virus in JM cells (Table II, 0.6 μg/mL); 48% with GB8 virus in JM cells (Table II, 1.25 μg/mL); 90% with GB8 virus in JM cells (Table II, 2.5 μg/mL); 36% with GB8 virus in JM cells (Table II, 5 μg/mL); 7% in the series on GB8 virus in JM cells (Table II, 10 μg/mL). In the series on GB8 virus in JM cells (Table II, 20 μg/mL), the SYNCYTIA % is given as 12%. The “SYNCYTIA (2 DAYS) MEAN” value in the series on GB8 virus in JM cells (Table II, 0.6 μg/mL) worked out at 51; in the series with GB8 virus in JM cells (Table II, 1.25 μg/mL) it was 20; in the series on GB8 virus in JM cells (Table II, 2.5 μg/mL) it was 38; in the series with GB8 virus in JM cells (Table II, 5 μg/mL) it was 15; in the series on GB8 virus in JM cells (Table II, 10 μg/mL), 3; with GB8 virus in JM cells (Table II, 20 μg/mL) it was 5.
Take “poly[imino(2,5-disulfo-1,4-phenylene)iminocarbonyl], alpha-{[(4-methylphenyl)amino]carbonyl}-omega-[(4-methylphenyl)amino]- [Example 3B]”: in the series on HIV strain RF, the ED50 stood at 1.7 µg/mL. Also, the TD50 in the series with MT4 cells is more than 100 µg/mL.
Consider “poly[imino(3-sulfo-1,4-phenylene)-1,2-ethenediyl-(2-sulfo-1,4-phenylene)iminocarbonyl], alpha-{[(4-methylphenyl)aminocarbonyl}-omega-[(4-methylphenyl)amino- [Example 2A]”, for which, in the series with HIV strain RF, the ED50 amounted to 1.9 µg/mL. Moreover, the TD50 in the series with MT4 cells is more than 100 µg/mL.
“poly[imino(3-sulfo-1,4-phenylene)-1,2-ethenediyl-(2-sulfo-1,4-phenylene)iminocarbonyl], alpha-{[(4-methylphenyl)aminocarbonyl}-omega-[(4-methylphenyl)amino- [Example 2B]”: the ED50 in the series on HIV strain RF was determined as 2.5 µg/mL. The TD50 with MT4 cells was more than 100 µg/mL.
The compound “poly{imino[2,2'-disulfo(1,1'-biphenyl)-4,4'-diyl]iminocarbonyl-1,4-phenylenecarbonyl}, alpha-{[(4-methylphenyl)amino]carbonyl}-omega-[(4-methylphenyl)amino]- [Example 8A]” displayed an ED50 in the series on HIV strain RF of 1.5 µg/mL. This compound returned a TD50 in the series with MT4 cells of more than 100 µg/mL. In addition, the P24 is on record as 4.3 × 10^4 units/mL in the series with GB8 virus in JM cells (Table II, 1 μg/mL); 4.4 × 10^4 units/mL with GB8 virus in JM cells (Table II, 3 μg/mL); 268599 pg/mL with GB8 virus in JM cells (Table III, 5 μg/mL); 11600 pg/mL with GB8 virus in JM cells (Table III, 50 μg/mL). In addition, the “SYNCYTIA (2 DAYS) MEAN” value in the series on GB8 virus in JM cells (Table II, 1 μg/mL) is reported as 3; with GB8 virus in JM cells (Table II, 3 μg/mL), 0; in the series with GB8 virus in JM cells (Table II, 10 μg/mL), 0; with GB8 virus in JM cells (Table II, 30 μg/mL), 0; in the series on GB8 virus in JM cells (Table II, 100 μg/mL), 0. The SYNCYTIA % in the series on GB8 virus in JM cells (Table II, 1 μg/mL) is reported as 7%; in the series on GB8 virus in JM cells (Table II, 3 μg/mL) it was 0%; in the series on GB8 virus in JM cells (Table II, 10 μg/mL), 0%; in the series on GB8 virus in JM cells (Table II, 30 μg/mL) it was 0%; in the series on GB8 virus in JM cells (Table II, 100 μg/mL), 0%; in the series with GB8 virus in JM cells (Table III, 5 μg/mL), 51%. The P24 % with GB8 virus in JM cells (Table II, 1 μg/mL) was found to be 12%; in the series on GB8 virus in JM cells (Table II, 3 μg/mL), 12%; with GB8 virus in JM cells (Table III, 5 μg/mL), 81%; in the series with GB8 virus in JM cells (Table III, 50 μg/mL) it was 3.5%. For the same compound, the “SYNCYTIA MEAN” value with GB8 virus in JM cells (Table III, 5 μg/mL) worked out at 35; in the series with GB8 virus in JM cells (Table III, 50 μg/mL), 0; with GB8 virus in JM cells (Table III, 500 μg/mL), 0.
The compound “poly{imino[2,2'-disulfo(1,1'-biphenyl)-4,4'-diyl]iminocarbonyl-1,4-phenylenecarbonyl}, alpha-{[(4-methylphenyl)amino]carbonyl}-omega-[(4-methylphenyl)amino]- [Example 8B]” showed an ED50 in the series on HIV strain RF of 2.1 µg/mL. The compound also returned a TD50 in the series on MT4 cells of more than 100 µg/mL.
Take “poly{imino[2,2'-disulfo(1,1'-biphenyl)-4,4'-diyl]iminocarbonyl-1,4-phenylenecarbonyl}, alpha-{[(4-methylphenyl)amino]carbonyl}-omega-[(4-methylphenyl)amino]- [Example 8C]”: in the series on HIV strain RF, the ED50 was 2.2 µg/mL. The TD50 in the series with MT4 cells was more than 100 µg/mL.

Values taken from patent publication US5707615A, “Method of treating HIV infections with anti-viral formulations” (Merrell Pharmaceuticals Inc., priority 1997, dated 1998).
